Values of other authors as cited in patent US8197851B2, “Carotenoid composition and method for preparation thereof” (priority 2004, dated 2012).

Columns and labels:
[1] = levels as high as 800 mg
[2] = tested on: macular degeneration changes; settings: 80 mg, versus placebo
[3] = tested on: cell surface molecules that initiate immune response; settings: human trials
[4] = tested on: UV light-suppressed immune function (DTH); settings: young and elderly men
[5] = tested on: Gap Junctional Communication (GJC); settings: independent of Vitamin A activity or antioxidant actions
[6] = tested on: natural killer cell (NK) activity; settings: elderly men
[7] = tested on: mouse epidermis (in vivo); settings: topical
[8] = tested on: human epidermis (ex vivo); settings: topical

For `CC(=O)Oc1c(C)c(C)c2c(c1C)CC[C@@](C)(CCC[C@H](C)CCC[C@H](C)CCCC(C)C)O2` (racemic) [dl-alpha tocopheryl acetate], the adverse effects [1] is listed as “No adverse effects”.

In the case of `[Zn]` [zinc], the “retarding macular degeneration changes” value [2] is given as “significantly better than placebo”.

For `CC1=C(/C=C/C(C)=C/C=C/C(C)=C/C=C/C=C(C)/C=C/C=C(C)/C=C/C2=C(C)CCCC2(C)C)C(C)(C)CCC1` [beta-carotene], the “expression of cell surface molecules that initiate immune response” value [3] is given as “stimulated expression of cell surface molecules that initiate immune response”, the “UV light-suppressed immune function (DTH)” value [4] is given as “Prevented UV light-suppressed immune function (DTH)” and the “increase of GJC” value [5] is given as “most potent in increasing GJC”. For the same compound, the “age related decline in natural killer cell (NK) activity” value [6] was “Prevented age related decline in natural killer cell (NK) activity”, the “increase of epidermal retinyl esters” value [7] was 3 fold and the “increase of epidermal retinyl esters” value [8] was 10 fold.
